Columns and labels:
U87R132H (U87MG) cells = test: Cellular assay for IDH1m inhibitors: inhibition of 2-HG production in U87MG (U87R132H) cells (LC-MS); type: cell-based; settings: Homo sapiens, U-87 MG, 48 hours
Procedure: (§1) Cells (e.g., HT1080 or U87MG) are grown in T125 flasks in DMEM containing 10% FBS, 1× penicillin/streptomycin and 500 ug/mL G418. They are harvested by trypsin and seeded into 96 well white bottom plates at a density of 5000 cell/well in 100 ul/well in DMEM with 10% FBS. No cells are plates in columns 1 and 12. Cells are incubated overnight at 37 C in 5% CO2. The next day compounds are made up at 2× concentration and 100 ul are added to each cell well. The final concentration of DMSO is 0.2% and the DMSO control wells are plated in row G. The plates are then placed in the incubator for 48 hours. At 48 hours, 100 ul of media is removed from each well and analyzed by LC-MS for 2-HG concentrations. The cell plate is placed back in the incubator for another 24 hours. At 72 hours post compound addition, 10 mL/plate of Promega Cell Titer Glo reagent is thawed and mixed. The cell plate is removed from the incubator and allowed to equilibrate to room temperature. Then 100 ul of reagent is added to each well of media. The cell plate is then placed on an orbital shaker for 10 minutes and then allowed to sit at room temperature for 20 minutes. The plate is then read for luminescence with an integration time of 500 ms.

IDH1 R132H = IDH1 R132H (Homo sapiens (Human), UniProt O75874, R132H); test: Assays for IDH1 R132H Inhibitors (NADPH/aKG, resazurin detection); type: biochemical; settings: IDH1 R132H enzyme, Table 3; read-out: R132H IC50
Method in brief: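 Mutant enzyme in 150 mM NaCl, 10 mM MgCl2, 20 mM Tris pH 7.5, 0.03% BSA; compound in DMSO added to substrate mix of 8 uM NADPH and 2 mM aKG. Reaction ran 50 min at room temperature, then resazurin detection mix (30 μM) added for 5 min at room temperature.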

HT1080 cells = test: Cellular assay for IDH1m inhibitors: inhibition of 2-HG production in HT1080 cells (LC-MS); type: cell-based; settings: Homo sapiens, HT-1080, 48 hours
Procedure: as §1

Chain of IDH1 R132H (O75874 whole entry R132H): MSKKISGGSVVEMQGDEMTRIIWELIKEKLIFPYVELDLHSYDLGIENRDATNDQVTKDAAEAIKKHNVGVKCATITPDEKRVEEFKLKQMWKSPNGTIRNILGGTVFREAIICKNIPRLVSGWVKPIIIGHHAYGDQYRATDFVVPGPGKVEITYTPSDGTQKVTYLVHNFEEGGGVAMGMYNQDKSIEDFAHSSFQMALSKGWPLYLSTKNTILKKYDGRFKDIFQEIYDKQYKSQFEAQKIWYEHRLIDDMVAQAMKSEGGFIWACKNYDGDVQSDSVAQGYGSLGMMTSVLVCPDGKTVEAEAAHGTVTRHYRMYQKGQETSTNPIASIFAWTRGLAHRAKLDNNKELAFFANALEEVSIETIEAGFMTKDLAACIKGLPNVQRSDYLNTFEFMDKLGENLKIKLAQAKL

IC50 (U87R132H (U87MG) cells)	IC50 (IDH1 R132H)	IC50 (HT1080 cells)	Compound
1000 to 10000 nM	< 500 nM	1000 to 10000 nM	[2H]C([2H])([2H])C([2H])(C([2H])([2H])[2H])C1([2H])CN(c2nc(C3CC3)c3c(c2C#N)CC(C)(C)OC3)CCN1C(=O)CC(F)(F)F (stereo in doubt) [Compound 451, (R)-8-cyclopropyl-6-(3-deuterio-3-(perdeuteriopropan-2-yl)-4-(3,3,3-trifluoropropanoyl)piperazin-1-yl)-3,3-dimethyl-3,4-dihydro-1H-pyrano[3,4-c]pyridine-5-carbonitrile]
1000 to 10000 nM	500 to 1000 nM	1000 to 10000 nM	CCOC(=O)C1CN(c2nc(C3CC3)c3c(c2C#N)CC(C)(C)OC3)CCN1C(=O)Cc1cccs1 (centres unmarked) [Compound 421, Ethyl 4-(5-cyano-8-cyclopropyl-3,3-dimethyl-3,4-dihydro-1H-pyrano[3,4-c]pyridin-6-yl)-1-(2-(thiophen-2-yl)acetyl)piperazine-2-carboxylate]
1000 to 10000 nM	500 to 1000 nM	1000 to 10000 nM	CNC(=O)CC(=O)N1CCN(c2nc(C3CC3)c3c(c2C#N)CC(C)(C)OC3)C[C@H]1C(C)C [Compound 422, (R)-3-(4-(5-cyano-8-cyclopropyl-3,3-dimethyl-3,4-dihydro-1H-pyrano[3,4-c]pyridin-6-yl)-2-isopropylpiperazin-1-yl)-N-methyl-3-oxopropanamide]
500 to 1000 nM	< 500 nM	1000 to 10000 nM	CC(C)[C@@H]1CN(c2nc(C3CC3)c3c(c2C#N)CC(C)(C)OC3)CCN1C(=O)CC(F)(F)F [Compound 423, (R)-8-cyclopropyl-6-(3-isopropyl-4-(3,3,3-trifluoropropanoyl)piperazin-1-yl)-3,3-dimethyl-3,4-dihydro-1H-pyrano[3,4-c]pyridine-5-carbonitrile]
500 to 1000 nM	< 500 nM	500 to 1000 nM	COCCCC(=O)N1CCN(c2nc(C3CC3)c3c(c2C#N)CC(C)(C)OC3)C[C@H]1C(C)C [Compound 424, (R)-8-cyclopropyl-6-(3-isopropyl-4-(4-methoxybutanoyl)piperazin-1-yl)-3,3-dimethyl-3,4-dihydro-1H-pyrano[3,4-c]pyridine-5-carbonitrile]
< 500 nM	< 500 nM	< 500 nM	COCCC(=O)N1CCN(c2nc(C3CC3)c3c(c2C#N)CC(C)(C)OC3)CC1C1CC1 (centres unmarked) [Compound 425, 8-cyclopropyl-6-(3-cyclopropyl-4-(3-methoxypropanoyl)piperazin-1-yl)-3,3-dimethyl-3,4-dihydro-1H-pyrano[3,4-c]pyridine-5-carbonitrile]
500 to 1000 nM	< 500 nM	< 500 nM	CC1(C)Cc2c(C#N)c(N3CCN(C(=O)c4ccoc4)C(C4CC4)C3)nc(C3CC3)c2CO1 (centres unmarked) [Compound 426, 8-cyclopropyl-6-(3-cyclopropyl-4-(furan-3-carbonyl)piperazin-1-yl)-3,3-dimethyl-3,4-dihydro-1H-pyrano[3,4-c]pyridine-5-carbonitrile]
1000 to 10000 nM	500 to 1000 nM	1000 to 10000 nM	CC(C)[C@@H]1CN(c2nc(C3CC3)c3c(c2C#N)CC(C)(C)OC3)CCN1C(=O)c1ccon1 [Compound 427, (R)-8-cyclopropyl-6-(3-isopropyl-4-(isoxazole-3-carbonyl)piperazin-1-yl)-3,3-dimethyl-3,4-dihydro-1H-pyrano[3,4-c]pyridine-5-carbonitrile]
< 500 nM	< 500 nM	1000 to 10000 nM	CC(=O)CCC(=O)N1CCN(c2nc(C3CC3)c3c(c2C#N)CC(C)(C)OC3)C[C@H]1C(C)C [Compound 428, (R)-8-cyclopropyl-6-(3-isopropyl-4-(4-oxopentanoyl)piperazin-1-yl)-3,3-dimethyl-3,4-dihydro-1H-pyrano[3,4-c]pyridine-5-carbonitrile]
< 500 nM	< 500 nM	< 500 nM	CC(C)[C@@H]1CN(c2nc(C3CC3)c3c(c2C#N)CC(C)(C)OC3)CCN1C(=O)CCO [Compound 429, (R)-8-cyclopropyl-6-(4-(3-hydroxypropanoyl)-3-isopropylpiperazin-1-yl)-3,3-dimethyl-3,4-dihydro-1H-pyrano[3,4-c]pyridine-5-carbonitrile]
< 500 nM	< 500 nM	500 to 1000 nM	CC1(C)Cc2c(C#N)c(N3CCN(C(=O)CC(F)(F)F)C(C4CC4)C3)nc(C3CC3)c2CO1 (centres unmarked) [Compound 430, 8-cyclopropyl-6-(3-cyclopropyl-4-(3,3,3-trifluoropropanoyl)piperazin-1-yl)-3,3-dimethyl-3,4-dihydro-1H-pyrano[3,4-c]pyridine-5-carbonitrile]
1000 to 10000 nM	500 to 1000 nM	1000 to 10000 nM	COC(=O)NCCC(=O)N1CCN(c2nc(C3CC3)c3c(c2C#N)CC(C)(C)OC3)C[C@H]1C(C)C [Compound 431, (R)-methyl 3-(4-(5-cyano-8-cyclopropyl-3,3-dimethyl-3,4-dihydro-1H-pyrano[3,4-c]pyridin-6-yl)-2-isopropylpiperazin-1-yl)-3-oxopropylcarbamate]
1000 to 10000 nM	500 to 1000 nM	1000 to 10000 nM	COCCC(=O)N1CCN(c2nc(C3CC3)c3c(c2C#N)CC(C)(C)OC3)C[C@H]1C [Compound 432, (R)-8-cyclopropyl-6-(4-(3-methoxypropanoyl)-3-methylpiperazin-1-yl)-3,3-dimethyl-3,4-dihydro-1H-pyrano[3,4-c]pyridine-5-carbonitrile]
500 to 1000 nM	< 500 nM	500 to 1000 nM	CC(O)CC(=O)N1CCN(c2nc(C3CC3)c3c(c2C#N)CC(C)(C)OC3)C[C@H]1C(C)C (stereo partly drawn) [Compound 433, 8-cyclopropyl-6-((3R)-4-(3-hydroxybutanoyl)-3-isopropylpiperazin-1-yl)-3,3-dimethyl-3,4-dihydro-1H-pyrano[3,4-c]pyridine-5-carbonitrile]
< 500 nM	< 500 nM	< 500 nM	COCCC(=O)N1CCN(c2nc(C3CC3)c3c(c2C#N)CC(C)(C)OC3)C[C@H]1C1CC1 [Compound 434, (R)-8-cyclopropyl-6-(3-cyclopropyl-4-(3-methoxypropanoyl)piperazin-1-yl)-3,3-dimethyl-3,4-dihydro-1H-pyrano[3,4-c]pyridine-5-carbonitrile]
< 500 nM	< 500 nM	< 500 nM	CC1(C)Cc2c(C#N)c(N3CCN(C(=O)CC(F)(F)F)[C@H](C4CC4)C3)nc(C3CC3)c2CO1 [Compound 435, (R)-8-cyclopropyl-6-(3-cyclopropyl-4-(3,3,3-trifluoropropanoyl)piperazin-1-yl)-3,3-dimethyl-3,4-dihydro-1H-pyrano[3,4-c]pyridine-5-carbonitrile]
1000 to 10000 nM	< 500 nM	1000 to 10000 nM	CC(C)[C@@H]1CN(c2nc(C3CC3)c3c(c2C#N)CC(C)(C)OC3)CCN1C(=O)CCF [Compound 437, (R)-8-cyclopropyl-6-(4-(3-fluoropropanoyl)-3-isopropylpiperazin-1-yl)-3,3-dimethyl-3,4-dihydro-1H-pyrano[3,4-c]pyridine-5-carbonitrile]
< 500 nM		< 500 nM	C#CC(=O)N1CCc2c(C#N)c(N3CCN(C(=O)CCOC)[C@H](C4CC4)C3)nc(C3CC3)c2C1 [Compound 488, (R)-1-cyclopropyl-3-(3-cyclopropyl-4-(3-methoxypropanoyl)piperazin-1-yl)-′7-propioloyl-5,6,7,8-tetrahydro-2,7-naphthyridine-4-carbonitrile]

— US9662327B2 (AGIOS PHARMACEUTICALS, INC, priority 2011, dated 2017)
